Test results from ChEMBL document CHEMBL1201861, “Genomics of Drug Sensitity in Cancer screening data, Wellcome Trust Sanger Institute”.

Key:
Experiment in all cases: cells
[1] = system: HT-1376; type: functional, cell-based, Homo sapiens; settings: Homo sapiens, HT-1376
Description: SANGER: Inhibition of human HT-1376 cell growth in a cell viability assay.

[2] = system: GCIY; type: functional, cell-based, Homo sapiens; settings: Homo sapiens, GCIY;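 note: growth inhibition of the human GCIY cell line, read out by a cell viability assay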
Description: SANGER: Inhibition of human GCIY cell growth in a cell viability assay.

[3] = system: MV4-11; type: functional, cell-based, MV-4-11; settings: Homo sapiens;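 note: cell viability readout measuring growth inhibition of human MV-4-11 cells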
Description: SANGER: Inhibition of human MV-4-11 cell growth in a cell viability assay.

[4] = system: SCC-15; type: functional, cell-based, Homo sapiens; settings: Homo sapiens, SCC-15;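 note: growth inhibition of SCC-15 cells, read out with a cell viability assay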
Description: SANGER: Inhibition of human SCC-15 cell growth in a cell viability assay.

[5] = system: CAL-72; type: functional, cell-based, Homo sapiens; settings: Homo sapiens, CAL-72;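 note: cell viability assay measuring inhibition of proliferation in the CAL-72 cell line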
Description: SANGER: Inhibition of human CAL-72 cell growth in a cell viability assay.

[6] = system: LU-139; type: functional, cell-based; settings: Homo sapiens
Description: SANGER: Inhibition of human LU-139 cell growth in a cell viability assay.

[7] = system: C-33-A; type: functional, cell-based, Homo sapiens; settings: Homo sapiens, C-33-A;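 note: cell viability assay measuring growth inhibition of C-33-A cells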
Description: SANGER: Inhibition of human C-33-A cell growth in a cell viability assay.

[8] = system: PSN1; type: functional, cell-based, Homo sapiens; settings: Homo sapiens, PSN1;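 note: suppression of growth of human PSN1 cells, read out by a cell viability assay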
Description: SANGER: Inhibition of human PSN1 cell growth in a cell viability assay.

[9] = system: SCC-9; type: functional, cell-based, Homo sapiens; settings: Homo sapiens, SCC-9;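 note: Read-out is a cell viability assay, with values giving inhibition of cell growth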
Description: SANGER: Inhibition of human SCC-9 cell growth in a cell viability assay.

[10] = system: NCI-H1838; type: functional, cell-based, Homo sapiens; settings: Homo sapiens, NCI-H1838;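 note: growth inhibition of NCI-H1838 cells, determined with a cell viability readout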
Description: SANGER: Inhibition of human NCI-H1838 cell growth in a cell viability assay.

[11] = system: T98G; type: functional, cell-based, Homo sapiens; settings: Homo sapiens, T98G;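 note: growth inhibition of T98G cells, read out by a cell viability assay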
Description: SANGER: Inhibition of human T98G cell growth in a cell viability assay.

[12] = system: MDA-MB-453; type: functional, cell-based, Homo sapiens; settings: Homo sapiens, MDA-MB-453
Description: SANGER: Inhibition of human MDA-MB-453 cell growth in a cell viability assay.

[13] = system: Detroit 562; type: functional, cell-based, Homo sapiens; settings: Homo sapiens, Detroit 562;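 note: growth inhibition of human Detroit 562 cells, read out by a cell viability assay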
Description: SANGER: Inhibition of human Detroit562 cell growth in a cell viability assay.

[14] = system: NTERA-2-cl-D1; type: functional, cell-based, Homo sapiens; settings: Homo sapiens, NTERA-2-cl-D1;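 note: inhibition of cell growth, measured with a cell viability assay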
Description: SANGER: Inhibition of human NTERA-S-cl-D1 cell growth in a cell viability assay.

[15] = system: HT-3; type: functional, cell-based, Homo sapiens; settings: Homo sapiens, HT-3;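 note: growth inhibition measured with a cell viability readout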
Description: SANGER: Inhibition of human HT-3 cell growth in a cell viability assay.

[16] = system: HTC-C3; type: functional, cell-based, Homo sapiens; settings: Homo sapiens, HTC-C3;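 note: inhibition of cell growth, read out with a cell viability assay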
Description: SANGER: Inhibition of human HTC-C3 cell growth in a cell viability assay.

[17] = system: BT-20; type: functional, cell-based, Homo sapiens; settings: Homo sapiens, BT-20;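 note: cell viability assay measuring suppression of growth in human BT-20 cells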
Description: SANGER: Inhibition of human BT-20 cell growth in a cell viability assay.

[18] = system: SW626; type: functional, cell-based, Homo sapiens; settings: Homo sapiens, SW626;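 note: growth inhibition of SW626 cells, measured with a cell viability assay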
Description: SANGER: Inhibition of human SW626 cell growth in a cell viability assay.

[19] = system: D-336MG; type: functional, cell-based, Homo sapiens; settings: Homo sapiens, D-336MG
Description: SANGER: Inhibition of human D-336MG cell growth in a cell viability assay.

[20] = system: LB831-BLC; type: functional, cell-based, Homo sapiens; settings: Homo sapiens, LB831-BLC;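 note: growth inhibition of LB831-BLC cells, read out with a cell viability assay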
Description: SANGER: Inhibition of human LB831-BLC cell growth in a cell viability assay.

[21] = system: SBC-1; type: functional, cell-based; settings: Homo sapiens;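 note: cell viability assay measuring growth inhibition of the SBC-1 cell line, IC50 being the concentration that halves growth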
Description: SANGER: Inhibition of human SBC-1 cell growth in a cell viability assay.

[22] = system: MKN-1; type: functional, cell-based, Homo sapiens; settings: Homo sapiens, MKN-1;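 note: growth inhibition of human MKN1 cells, read out by a cell viability measurement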
Description: SANGER: Inhibition of human MKN1 cell growth in a cell viability assay.

[23] = system: OE19; type: functional, cell-based, Homo sapiens; settings: Homo sapiens, OE19;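 note: growth inhibition of OE19 cells, measured through a cell viability read-out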
Description: SANGER: Inhibition of human OE19 cell growth in a cell viability assay.

[24] = system: NEC8; type: functional, cell-based, Homo sapiens; settings: Homo sapiens, NEC8;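 note: growth inhibition of human NEC8 cells, read out by a cell viability assay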
Description: SANGER: Inhibition of human NEC8 cell growth in a cell viability assay.

[25] = system: A253 cell line; type: functional, cell-based, Homo sapiens; settings: Homo sapiens, A253;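 note: growth inhibition of A253 cells, read out with a cell viability assay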
Description: SANGER: Inhibition of human A253 cell growth in a cell viability assay.

[26] = system: A3-KAW; type: functional, cell-based; settings: Homo sapiens;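 note: growth inhibition of human A3-KAW cells, read out with a cell viability assay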
Description: SANGER: Inhibition of human A3-KAW cell growth in a cell viability assay.

[27] = system: PC-3; type: functional, cell-based, Homo sapiens; settings: Homo sapiens, PC-3;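 note: cell viability assay measuring growth inhibition of PC-3 cells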
Description: SANGER: Inhibition of human PC-3 cell growth in a cell viability assay.

[28] = system: NCI-H441; type: functional, cell-based; settings: Homo sapiens;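 note: growth inhibition of NCI-H441 cells, read out with a cell viability assay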
Description: SANGER: Inhibition of human NCI-H441 cell growth in a cell viability assay.

[29] = system: NCI-H596; type: functional, cell-based, Homo sapiens; settings: Homo sapiens, NCI-H596;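 note: growth inhibition of NCI-H596 cells, read out with a cell viability assay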
Description: SANGER: Inhibition of human NCI-H596 cell growth in a cell viability assay.

[30] = system: CAL-85-1; type: functional, cell-based; settings: Homo sapiens;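 note: growth inhibition of human CAL-85-1 cells, read out with a cell viability assay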
Description: SANGER: Inhibition of human CAL-85-1 cell growth in a cell viability assay.

[31] = system: EW-3; type: functional, cell-based; settings: Homo sapiens;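 note: cell viability assay read-out, IC50 reflects inhibition of growth of the EW-3 cells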
Description: SANGER: Inhibition of human EW-3 cell growth in a cell viability assay.

[32] = system: ALL-PO; type: functional, cell-based; settings: Homo sapiens;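 note: growth inhibition of ALL-PO cells, read out by a cell viability assay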
Description: SANGER: Inhibition of human ALL-PO cell growth in a cell viability assay.

[33] = system: BFTC-905; type: functional, cell-based, Homo sapiens; settings: Homo sapiens, BFTC-905
Description: SANGER: Inhibition of human BFTC-905 cell growth in a cell viability assay.

[34] = system: MDA-MB-231; type: functional, cell-based, Homo sapiens; settings: Homo sapiens, MDA-MB-231
Description: SANGER: Inhibition of human MDA-MB-231 cell growth in a cell viability assay.

[35] = system: Hs-578T; type: functional, cell-based, Homo sapiens; settings: Homo sapiens, Hs-578T
Description: SANGER: Inhibition of human Hs-578-T cell growth in a cell viability assay.

[36] = system: KMOE-2; type: functional, cell-based; settings: Homo sapiens;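 note: growth inhibition of human KMOE-2 cells, read out with a cell viability assay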
Description: SANGER: Inhibition of human KMOE-2 cell growth in a cell viability assay.

[37] = system: HCC2157; type: functional, cell-based; settings: Homo sapiens;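 note: growth inhibition of the cancer cell line, read out as cell viability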
Description: SANGER: Inhibition of human HCC2157 cell growth in a cell viability assay.

[38] = system: SW1463; type: functional, cell-based, Homo sapiens; settings: Homo sapiens, SW1463;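 note: growth inhibition of SW1463 cells, determined with a cell viability assay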
Description: SANGER: Inhibition of human SW1463 cell growth in a cell viability assay.

[39] = system: EFO-27; type: functional, cell-based, Homo sapiens; settings: Homo sapiens, EFO-27;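 note: growth inhibition of EFO-27 cells, read out with a cell viability assay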
Description: SANGER: Inhibition of human EFO-27 cell growth in a cell viability assay.

[40] = system: BE-13; type: functional, cell-based; settings: Homo sapiens;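 note: growth inhibition of human BE-13 cells, measured with a cell viability assay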
Description: SANGER: Inhibition of human BE-13 cell growth in a cell viability assay.

[41] = system: U-251; type: functional, cell-based, Homo sapiens; settings: Homo sapiens, U-251;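 note: growth inhibition of human U-251 cells, read out through a cell viability assay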
Description: SANGER: Inhibition of human U251 cell growth in a cell viability assay.

[42] = system: UACC-62; type: functional, cell-based, Homo sapiens; settings: Homo sapiens, UACC-62;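 note: growth inhibition of human UACC-62 cells, read out by a cell viability assay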
Description: SANGER: Inhibition of human UACC-62 cell growth in a cell viability assay.

[43] = system: HSC-3; type: functional, cell-based, Homo sapiens; settings: Homo sapiens, HSC-3
Description: SANGER: Inhibition of human HSC-3 cell growth in a cell viability assay.

[44] = system: DU-145; type: functional, cell-based, Homo sapiens; settings: Homo sapiens, DU-145
Description: SANGER: Inhibition of human DU-145 cell growth in a cell viability assay.

[45] = system: SK-OV-3; type: functional, cell-based, Homo sapiens; settings: Homo sapiens, SK-OV-3;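 note: growth inhibition of SK-OV-3 human cells, read out with a cell viability assay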
Description: SANGER: Inhibition of human SK-OV-3 cell growth in a cell viability assay.

[46] = system: HCC1395; type: functional, cell-based, Homo sapiens; settings: Homo sapiens, HCC1395;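 note: growth inhibition of HCC1395 cells, read out by a cell viability assay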
Description: SANGER: Inhibition of human HCC1395 cell growth in a cell viability assay.

[47] = system: NCI-H1581; type: functional, cell-based, Homo sapiens; settings: Homo sapiens, NCI-H1581;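 note: cell growth inhibition read out by a viability assay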
Description: SANGER: Inhibition of human NCI-H1581 cell growth in a cell viability assay.

[48] = system: ETK-1; type: functional, cell-based, Homo sapiens; settings: Homo sapiens, ETK-1;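 note: growth inhibition of human ETK-1 cells, read out with a cell viability assay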
Description: SANGER: Inhibition of human ETK-1 cell growth in a cell viability assay.

[49] = system: MDA-MB-157; type: functional, cell-based, Homo sapiens; settings: Homo sapiens, MDA-MB-157
Description: SANGER: Inhibition of human MDA-MB-157 cell growth in a cell viability assay.

[50] = system: K562; type: functional, cell-based; settings: Homo sapiens
Description: SANGER: Inhibition of human K-562 cell growth in a cell viability assay.

[51] = system: CP66-MEL; type: functional, cell-based, Homo sapiens; settings: Homo sapiens, CP66-MEL;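 note: growth inhibition of CP66-MEL cells determined in a cell viability assay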
Description: SANGER: Inhibition of human CP66-MEL cell growth in a cell viability assay.

[52] = system: NB69; type: functional, cell-based, Homo sapiens; settings: Homo sapiens, NB69;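 note: growth inhibition of NB69 cells, determined by a cell viability assay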
Description: SANGER: Inhibition of human NB69 cell growth in a cell viability assay.

## COC(=O)CNC(=O)C(=O)OC
[1]
  IC50: 389 µM
[2]
  IC50: 109 µM
[3]
  IC50: 276 µM
[4]
  IC50: 1030 µM
[5]
  IC50: 488 µM
[6]
  IC50: 184 µM
[7]
  IC50: > 4000 µM
[8]
  IC50: > 4000 µM
[9]
  IC50: 122 µM
[10]
  IC50: > 4000 µM
[11]
  IC50: 666 µM
[12]
  IC50: > 4000 µM
[13]
  IC50: 507 µM
[14]
  IC50: 57.6 µM
[15]
  IC50: 853 µM
[16]
  IC50: 175 µM
[17]
  IC50: 947 µM
[18]
  IC50: 1840 µM
[19]
  IC50: > 4000 µM
[20]
  IC50: 911 µM
[21]
  IC50: 1410 µM
[22]
  IC50: 2190 µM
[23]
  IC50: > 4000 µM
[24]
  IC50: 406 µM
[25]
  IC50: 232 µM
[26]
  IC50: 15.8 µM
[27]
  IC50: 418 µM
[28]
  IC50: 839 µM
[29]
  IC50: > 4000 µM
[30]
  IC50: 108 µM
[31]
  IC50: 1890 µM
[32]
  IC50: 69.9 µM
[33]
  IC50: 580 µM
[34]
  IC50: 368 µM
[35]
  IC50: 3120 µM
[36]
  IC50: 305 µM
[37]
  IC50: > 4000 µM
[38]
  IC50: 1780 µM
[39]
  IC50: 541 µM
[40]
  IC50: 180 µM
[41]
  IC50: 215 µM
[42]
  IC50: > 4000 µM
[43]
  IC50: 618 µM
[44]
  IC50: 825 µM
[45]
  IC50: 798 µM
[46]
  IC50: 1540 µM
[47]
  IC50: 729 µM
[48]
  IC50: 525 µM
[49]
  IC50: 566 µM
[50]
  IC50: 2030 µM
[51]
  IC50: 445 µM
[52]
  IC50: 213 µM

## C=CCc1cccc(/C=N/NC(=O)CN2CCN(Cc3ccccc3)CC2)c1O [PAC-1]
[1]
  IC50: > 2.56 µM
[2]
  IC50: > 2.56 µM
[3]
  IC50: > 2.56 µM
[4]
  IC50: > 2.56 µM
[5]
  IC50: > 2.56 µM
[6]
  IC50: > 2.56 µM
[7]
  IC50: > 2.56 µM
[8]
  IC50: > 2.56 µM
[9]
  IC50: > 2.56 µM
[10]
  IC50: > 2.56 µM
[11]
  IC50: > 2.56 µM
[12]
  IC50: > 2.56 µM
[13]
  IC50: > 2.56 µM
[14]
  IC50: > 2.56 µM
[15]
  IC50: > 2.56 µM
[16]
  IC50: > 2.56 µM
[17]
  IC50: > 2.56 µM
[18]
  IC50: > 2.56 µM
[20]
  IC50: > 2.56 µM
[21]
  IC50: > 2.56 µM
[22]
  IC50: > 2.56 µM
[23]
  IC50: > 2.56 µM
[24]
  IC50: > 2.56 µM
[25]
  IC50: > 2.56 µM
[26]
  IC50: 1.93 µM
[27]
  IC50: > 2.56 µM
[28]
  IC50: > 2.56 µM
[29]
  IC50: > 2.56 µM
[30]
  IC50: > 2.56 µM
[31]
  IC50: > 2.56 µM
[32]
  IC50: > 2.56 µM
[33]
  IC50: > 2.56 µM
[34]
  IC50: > 2.56 µM
[35]
  IC50: > 2.56 µM
[36]
  IC50: > 2.56 µM
[37]
  IC50: > 2.56 µM
[38]
  IC50: > 2.56 µM
[39]
  IC50: > 2.56 µM
[40]
  IC50: > 2.56 µM
[41]
  IC50: > 2.56 µM
[42]
  IC50: > 2.56 µM
[43]
  IC50: > 2.56 µM
[44]
  IC50: > 2.56 µM
[45]
  IC50: 1.66 µM
[46]
  IC50: > 2.56 µM
[47]
  IC50: > 2.56 µM
[48]
  IC50: 2.48 µM
[49]
  IC50: > 2.56 µM
[50]
  IC50: > 2.56 µM
[51]
  IC50: > 2.56 µM
[52]
  IC50: > 2.56 µM
